The text below walks through data of ChEMBL document CHEMBL1136998, “Bis-neonicotinoid insecticides: Observed and predicted binding interactions with the nicotinic receptor” (Bioorg Med Chem Lett, 2009).

pKi: −log10 of the molar value.

One assay is described as follows: Displacement of [3H]IMI from Drosophila melanogaster brain nAChR. In general terms: Displacement assays read how much labelled ligand stays bound in the presence of the test substance.
For `O=[N+]([O-])/N=C1/N(CC/C=C/CCN2CCN(Cc3ccc(Cl)nc3)/C2=N\[N+](=O)[O-])CCN1Cc1ccc(Cl)nc1`, the pKi (as a rule, the Ki on a negative log10 scale, so that one unit is a factor of ten) was 5.60.
The compound `O=[N+]([O-])/N=C1/N(CCCCCCN2CCN(Cc3ccc(Cl)nc3)/C2=N\[N+](=O)[O-])CCN1Cc1ccc(Cl)nc1` had a pKi of 6.17.
`O=[N+]([O-])/N=C1/N(CCCCCCCCCN2CCN(Cc3ccc(Cl)nc3)/C2=N\[N+](=O)[O-])CCN1Cc1ccc(Cl)nc1` gave a pKi of 5.86.
The same measure, in the same setting: next, `O=[N+]([O-])/N=C1/N(Cc2ccc(CN3CCN(Cc4ccc(Cl)nc4)/C3=N\[N+](=O)[O-])cc2)CCN1Cc1ccc(Cl)nc1`: 5.93; `O=[N+]([O-])/N=C1/N(CCCCCCCN2CCN(Cc3ccc(Cl)nc3)/C2=N\[N+](=O)[O-])CCN1Cc1ccc(Cl)nc1`: 6.85.
`O=[N+]([O-])/N=C1/N(CC/C=C\CCN2CCN(Cc3ccc(Cl)nc3)/C2=N\[N+](=O)[O-])CCN1Cc1ccc(Cl)nc1` showed a pKi of 6.11.
Consider `O=[N+]([O-])/N=C1/N(CCCCCCCCN2CCN(Cc3ccc(Cl)nc3)/C2=N\[N+](=O)[O-])CCN1Cc1ccc(Cl)nc1`, for which the pKi is 6.06.
In turn, `O=[N+]([O-])/N=C1/N(C/C=C/C=C/CN2CCN(Cc3ccc(Cl)nc3)/C2=N\[N+](=O)[O-])CCN1Cc1ccc(Cl)nc1` gave a pKi of 6.01.
On the same count and under the same terms, next, `O=[N+]([O-])/N=C1/N(CCCCCN2CCN(Cc3ccc(Cl)nc3)/C2=N\[N+](=O)[O-])CCN1Cc1ccc(Cl)nc1`: 5.27.

The next assay is described as follows: Displacement of [3H]IMI from house fly nAChR. Also noted: species or system Musca domestica.
Consider `O=[N+]([O-])/N=C1/N(CCCCCCCCCCN2CCN(Cc3ccc(Cl)nc3)/C2=N\[N+](=O)[O-])CCN1Cc1ccc(Cl)nc1`, for which the pKi was 3.96.
`O=[N+]([O-])/N=C1\N(Cc2ccc(Cl)nc2)CCN1CN1CCN(Cc2ccc(Cl)nc2)/C1=N\[N+](=O)[O-]` gave a negative-log Ki (pKi) of 4.57.
